Source: US20230085307A1, “PYRIDAZINONE COMPOUND AND HERBICIDE” (NISSAN CHEMICAL CORPORATION, priority 2019, published 2023)

These compounds were tested on southern crabgrass (assay: Test Example 5: herbicidal effect by foliage application, plastic box (Table 20, symbol F)). Details: foliage application, 320 g/ha, evaluated three weeks after application.
Format: in vivo, southern crabgrass (Digitaria ciliaris)
In short: (§1)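 Plants sown in sterilized diluvial soil and grown 14 days in a greenhouse at 25° C to 30° C, then sprayed on the foliage with the compound's emulsion diluted in water to a predetermined herbicide amount. Injury to weeds and crops scored three weeks after application on a visual rating scale.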

Row | Compound | herbicidal effect on F: southern crabgrass
1 | CCCC(=O)Oc1c(C)nn(C)c(=O)c1-c1c(-c2ccc(C(C)=O)cc2)sc2ccc(F)cc12 [2-078] | 0 (Herbicidal rate of 5% or less (almost no effect))
2 | CCCC(=O)Oc1c(C)nn(C)c(=O)c1-c1c(-c2ccc(OC)c(F)c2)sc2ccc(F)cc12 [2-087] | 0 (Herbicidal rate of 5% or less (almost no effect))

The compounds below were run on blackgrass (assay: Test Example 4: herbicidal effect by soil treatment (Table 19, symbol J)). Details: 320 g/ha.
Format: in vivo, blackgrass (Alopecurus myosuroides)
In short: (§2)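 Three weeks of greenhouse growth at 25° C. to 30° C. followed a uniform surface spray of water-diluted emulsion at a predetermined herbicide amount. Seeds had been sown beforehand under about 1.5 cm of sterilized diluvial soil. Grading followed criteria set out in an earlier test.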

Row | Compound | herbicidal effect rating, J: blackgrass
3 | CCCC(=O)Oc1c(C)nn(C)c(=O)c1-c1c(-c2ccc(C(C)=O)cc2)sc2ccc(F)cc12 [2-078] | 1 (Herbicidal rate of 5% or more and less than 20%)
4 | CCCC(=O)Oc1c(C)nn(C)c(=O)c1-c1c(-c2ccc(OC)c(F)c2)sc2ccc(F)cc12 [2-087] | 0 (Herbicidal rate of 5% or less (almost no effect))

The compounds below were run on velvetleaf (assay: Test Example 4: herbicidal effect by soil treatment (Table 19, symbol M)). Details: 320 g/ha.
Format: in vivo, velvetleaf (Abutilon theophrasti)
In short: as §2

Row | Compound | herbicidal effect rating, M: velvetleaf
5 | CCCC(=O)Oc1c(C)nn(C)c(=O)c1-c1c(-c2ccc(C(C)=O)cc2)sc2ccc(F)cc12 [2-078] | 3 (Herbicidal rate of 40% or more and less than 70%)
6 | CCCC(=O)Oc1c(C)nn(C)c(=O)c1-c1c(-c2ccc(OC)c(F)c2)sc2ccc(F)cc12 [2-087] | 3 (Herbicidal rate of 40% or more and less than 70%)

The compounds below were run on windgrass (assay: Test Example 5: herbicidal effect by foliage application, plastic box (Table 20, symbol L)). Details: foliage application, 320 g/ha, evaluated three weeks after application.
Format: in vivo, windgrass (Apera spica-venti)
In short: as §1

Row | Compound | herbicidal effect on L: windgrass
7 | CCCC(=O)Oc1c(C)nn(C)c(=O)c1-c1c(-c2ccc(C(C)=O)cc2)sc2ccc(F)cc12 [2-078] | 5 (Herbicidal rate of 90% or more (almost completely withered))
8 | CCCC(=O)Oc1c(C)nn(C)c(=O)c1-c1c(-c2ccc(OC)c(F)c2)sc2ccc(F)cc12 [2-087] | 0 (Herbicidal rate of 5% or less (almost no effect))

What follows are compounds tested on chickweed (assay: Test Example 5: herbicidal effect by foliage application, plastic box (Table 20, symbol P)). Details: foliage application, 320 g/ha, evaluated three weeks after application.
Format: in vivo, common chickweed (Stellaria media)
In short: as §1

Row | Compound | herbicidal effect on P: chickweed
9 | CCCC(=O)Oc1c(C)nn(C)c(=O)c1-c1c(-c2ccc(C(C)=O)cc2)sc2ccc(F)cc12 [2-078] | 5 (Herbicidal rate of 90% or more (almost completely withered))
10 | CCCC(=O)Oc1c(C)nn(C)c(=O)c1-c1c(-c2ccc(OC)c(F)c2)sc2ccc(F)cc12 [2-087] | 5 (Herbicidal rate of 90% or more (almost completely withered))

These compounds were tested on green foxtail (assay: Test Example 4: herbicidal effect by soil treatment (Table 19, symbol G)). Details: 320 g/ha.
Format: in vivo, green foxtail (Setaria viridis)
In short: as §2

Row | Compound | herbicidal effect rating, G: green foxtail
11 | CCCC(=O)Oc1c(C)nn(C)c(=O)c1-c1c(-c2ccc(C(C)=O)cc2)sc2ccc(F)cc12 [2-078] | 0 (Herbicidal rate of 5% or less (almost no effect))
12 | CCCC(=O)Oc1c(C)nn(C)c(=O)c1-c1c(-c2ccc(OC)c(F)c2)sc2ccc(F)cc12 [2-087] | 0 (Herbicidal rate of 5% or less (almost no effect))

What follows are compounds tested on chickweed (assay: Test Example 4: herbicidal effect by soil treatment (Table 19, symbol P)). Details: 320 g/ha.
Format: in vivo, common chickweed (Stellaria media)
In short: as §2

Row | Compound | herbicidal effect rating, P: chickweed
13 | CCCC(=O)Oc1c(C)nn(C)c(=O)c1-c1c(-c2ccc(C(C)=O)cc2)sc2ccc(F)cc12 [2-078] | 3 (Herbicidal rate of 40% or more and less than 70%)
14 | CCCC(=O)Oc1c(C)nn(C)c(=O)c1-c1c(-c2ccc(OC)c(F)c2)sc2ccc(F)cc12 [2-087] | 3 (Herbicidal rate of 40% or more and less than 70%)

The compounds below were run on persian speedwell (assay: Test Example 4: herbicidal effect by soil treatment (Table 19, symbol R)). Details: 320 g/ha.
Format: in vivo, Persian speedwell (Veronica persica)
In short: as §2

Row | Compound | herbicidal effect rating, R: persian speedwell
15 | CCCC(=O)Oc1c(C)nn(C)c(=O)c1-c1c(-c2ccc(C(C)=O)cc2)sc2ccc(F)cc12 [2-078] | 5 (Herbicidal rate of 90% or more (almost completely withered))
16 | CCCC(=O)Oc1c(C)nn(C)c(=O)c1-c1c(-c2ccc(OC)c(F)c2)sc2ccc(F)cc12 [2-087] | 5 (Herbicidal rate of 90% or more (almost completely withered))

What follows are compounds tested on velvetleaf (assay: Test Example 5: herbicidal effect by foliage application, plastic box (Table 20, symbol M)). Details: foliage application, 320 g/ha, evaluated three weeks after application.
Format: in vivo, velvetleaf (Abutilon theophrasti)
In short: as §1

Row | Compound | herbicidal effect on M: velvetleaf
17 | CCCC(=O)Oc1c(C)nn(C)c(=O)c1-c1c(-c2ccc(C(C)=O)cc2)sc2ccc(F)cc12 [2-078] | 5 (Herbicidal rate of 90% or more (almost completely withered))
18 | CCCC(=O)Oc1c(C)nn(C)c(=O)c1-c1c(-c2ccc(OC)c(F)c2)sc2ccc(F)cc12 [2-087] | 5 (Herbicidal rate of 90% or more (almost completely withered))

Each compound was assayed on lambsquarters (assay: Test Example 5: herbicidal effect by foliage application, plastic box (Table 20, symbol O)). Details: foliage application, 320 g/ha, evaluated three weeks after application.
Format: in vivo, lambsquarters (Chenopodium album)
In short: as §1

Row | Compound | herbicidal effect on O: lambsquarters
19 | CCCC(=O)Oc1c(C)nn(C)c(=O)c1-c1c(-c2ccc(C(C)=O)cc2)sc2ccc(F)cc12 [2-078] | 4 (Herbicidal rate of 70% or more and less than 90%)
20 | CCCC(=O)Oc1c(C)nn(C)c(=O)c1-c1c(-c2ccc(OC)c(F)c2)sc2ccc(F)cc12 [2-087] | 4 (Herbicidal rate of 70% or more and less than 90%)

Each compound was assayed on wild oat (assay: Test Example 4: herbicidal effect by soil treatment (Table 19, symbol I)). Details: 320 g/ha.
Format: in vivo, wild oat (Avena fatua)
In short: as §2

Row | Compound | herbicidal effect rating, I: wild oat
21 | CCCC(=O)Oc1c(C)nn(C)c(=O)c1-c1c(-c2ccc(C(C)=O)cc2)sc2ccc(F)cc12 [2-078] | 0 (Herbicidal rate of 5% or less (almost no effect))
22 | CCCC(=O)Oc1c(C)nn(C)c(=O)c1-c1c(-c2ccc(OC)c(F)c2)sc2ccc(F)cc12 [2-087] | 0 (Herbicidal rate of 5% or less (almost no effect))

These compounds were tested on lambsquarters (assay: Test Example 4: herbicidal effect by soil treatment (Table 19, symbol O)). Details: 320 g/ha.
Format: in vivo, lambsquarters (Chenopodium album)
In short: as §2

Row | Compound | herbicidal effect rating, O: lambsquarters
23 | CCCC(=O)Oc1c(C)nn(C)c(=O)c1-c1c(-c2ccc(C(C)=O)cc2)sc2ccc(F)cc12 [2-078] | 4 (Herbicidal rate of 70% or more and less than 90%)
24 | CCCC(=O)Oc1c(C)nn(C)c(=O)c1-c1c(-c2ccc(OC)c(F)c2)sc2ccc(F)cc12 [2-087] | 5 (Herbicidal rate of 90% or more (almost completely withered))

What follows are compounds tested on Japanese bulrush (assay: Test Example 2: herbicidal activity, application during weed generation under submerged conditions (Table 17, symbol B)). Details: AAH 320 g/ha; application during weed generation, submerged conditions.
Format: in vivo, Japanese bulrush (Schoenoplectus juncoides)
In short: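 In this pot test, flooded alluvial soil (water depth 4 cm) holds all three species sown as a mixture. Once seedlings have one to two leaves, the compound's emulsion, thinned with water to the intended dose, is poured on the water; grading follows after three weeks on the earlier criteria.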

Row | Compound | herbicidal effect rating, B: Japanese bulrush
25 | CCCC(=O)Oc1c(C)nn(C)c(=O)c1-c1c(-c2ccc(C(C)=O)cc2)sc2ccc(F)cc12 [2-078] | 4 (Herbicidal rate of 70% or more and less than 90%)
26 | CCCC(=O)Oc1c(C)nn(C)c(=O)c1-c1c(-c2ccc(OC)c(F)c2)sc2ccc(F)cc12 [2-087] | 2 (Herbicidal rate of 20% or more and less than 40%)

These compounds were tested on persian speedwell (assay: Test Example 5: herbicidal effect by foliage application, plastic box (Table 20, symbol R)). Details: foliage application, 320 g/ha, evaluated three weeks after application.
Format: in vivo, Persian speedwell (Veronica persica)
In short: as §1

Row | Compound | herbicidal effect on R: persian speedwell
27 | CCCC(=O)Oc1c(C)nn(C)c(=O)c1-c1c(-c2ccc(C(C)=O)cc2)sc2ccc(F)cc12 [2-078] | 5 (Herbicidal rate of 90% or more (almost completely withered))
28 | CCCC(=O)Oc1c(C)nn(C)c(=O)c1-c1c(-c2ccc(OC)c(F)c2)sc2ccc(F)cc12 [2-087] | 5 (Herbicidal rate of 90% or more (almost completely withered))

The compounds below were run on oval-leafed pondweed (assay: Test Example 1: herbicidal activity, application before weed generation under submerged conditions (Table 16, symbol C)). Details: 320 g/ha applied herbicide.
Format: in vivo, oval-leafed pondweed (Monochoria vaginalis)
In short: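 Emulsion formulation, water-diluted to set dose, was put onto the flooded surface (4 cm depth, alluvial soil) the same day weeds were sown and 2.5-leaf rice transplanted. After 3 weeks at 25-30 °C under glass, each species was rated 0 (≤5% kill) to 5 (≥90% kill).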

Row | Compound | Herbicidal effect on C: oval-leafed pondweed (grade 0-5)
29 | CCCC(=O)Oc1c(C)nn(C)c(=O)c1-c1c(-c2ccc(C(C)=O)cc2)sc2ccc(F)cc12 [2-078] | 4 (Herbicidal rate of 70% or more and less than 90%)
30 | CCCC(=O)Oc1c(C)nn(C)c(=O)c1-c1c(-c2ccc(OC)c(F)c2)sc2ccc(F)cc12 [2-087] | 4 (Herbicidal rate of 70% or more and less than 90%)

These compounds were tested on southern crabgrass (assay: Test Example 4: herbicidal effect by soil treatment (Table 19, symbol F)). Details: 320 g/ha.
Format: in vivo, southern crabgrass (Digitaria ciliaris)
In short: as §2

Row | Compound | herbicidal effect rating, F: southern crabgrass
31 | CCCC(=O)Oc1c(C)nn(C)c(=O)c1-c1c(-c2ccc(C(C)=O)cc2)sc2ccc(F)cc12 [2-078] | 0 (Herbicidal rate of 5% or less (almost no effect))
32 | CCCC(=O)Oc1c(C)nn(C)c(=O)c1-c1c(-c2ccc(OC)c(F)c2)sc2ccc(F)cc12 [2-087] | 0 (Herbicidal rate of 5% or less (almost no effect))

These compounds were tested on barnyard grass (assay: Test Example 4: herbicidal effect by soil treatment (Table 19, symbol H)). Details: 320 g/ha.
Format: in vivo, barnyard grass (Echinochloa crus-galli)
In short: as §2

Row | Compound | herbicidal effect rating, H: barnyard grass
33 | CCCC(=O)Oc1c(C)nn(C)c(=O)c1-c1c(-c2ccc(C(C)=O)cc2)sc2ccc(F)cc12 [2-078] | 0 (Herbicidal rate of 5% or less (almost no effect))
34 | CCCC(=O)Oc1c(C)nn(C)c(=O)c1-c1c(-c2ccc(OC)c(F)c2)sc2ccc(F)cc12 [2-087] | 0 (Herbicidal rate of 5% or less (almost no effect))
